Results: patent publication US10233195B2, “Anti-fibrotic pyridinones” (InterMune, Inc., priority 2014, dated 2019)
pEC50: −log10 of the molar value.

test system: TGF-b induced Endothelin-1 production; test: ET-1 assay: inhibitory effect on TGF-b induced endothelin-1 production; format: cell-based; details: Homo sapiens, Fibroblast; fibroblasts, stimulant (TGFb, serum, LPA etc), ET-1 in media by ELISA, 4-parameter fit
Description: Assay of Inhibitory Effect on TGF-b Induced Endothelin-1 Production
Fibroblasts (primary human lung and dermal, HFL-1, 3T3 etc) are seeded in 96-well plates at ˜15000 cells/well and serum starved for 0-48 hours. After media exchange, compounds serially diluted in DMSO are added to the cells. After a brief incubation of ˜30 min, stimulants (TGFb, serum, LPA etc) are added followed by further incubation for 16-48 hours. Media is then harvested and stored frozen in plate format for later endothelin-1 (ET-1) determination by ELISA. Toxicity measurements are made using the ATPlite kit (Perkin-Elmer). ET-1 is quantified using an ELISA kit (R&D Systems). The amount of ET-1 produced in the assay wells are back-calculated using the ELISA standard. The ability of a compound to inhibit ET-1 production is typically analyzed by fitting dose-response curves to a 4-parameter logistic function to obtain an EC50 value. A measure of cytotoxicity (CC50) is likewise reported from the same experiment using the ATPlite data.
Compounds of some embodiments were prepared according to synthetic methods described herein and assay data obtained for EC50 against ET-1. The assay data obtained is presented in Table 2, in which A=less than 50 μM, B=greater than or equal to 50 μM and less than or equal to 200 μM; and C=greater than 200 μM.

Row | Compound | pEC50
1 | Cc1ccc2c(c1)CC(=O)N2c1ccc(OC(F)(F)F)cc1 [Compound 82] | < 3.70
2 | C[C@H]1CCC(=O)N(c2ccccc2)C1 [Compound 83] | < 3.70
3 | C[C@@H]1CCC(=O)N(c2ccccc2)C1 [Compound 84] | < 3.70
4 | COc1cc(=O)n(-c2ccc(OC(F)(F)F)cc2)cc1-c1ccc(F)cc1 [Compound 85] | < 3.70
5 | Nc1cc(=O)n(-c2ccc(OC(F)(F)F)cc2)cc1-c1ccc(F)cc1 [Compound 88] | 3.70 to 4.30
6 | O=c1cc(NCc2ccccc2)c(-c2ccc(F)cc2)cn1-c1ccc(OC(F)(F)F)cc1 [Compound 89] | < 3.70
7 | CNc1cc(=O)n(-c2ccc(OC(F)(F)F)cc2)cc1-c1ccc(F)cc1 [Compound 90] | < 3.70
8 | O=c1cc(OCc2ccccc2)c(-c2ccc(F)cc2)cn1-c1ccc(OC(F)(F)F)cc1 [Compound 91] | < 3.70
9 | O=c1cc(OCCN2CCOCC2)c(-c2ccc(F)cc2)cn1-c1ccc(OC(F)(F)F)cc1 [Compound 92] | 3.70 to 4.30
10 | O=c1cc(OCCN2CCCC2)c(-c2ccc(F)cc2)cn1-c1ccc(OC(F)(F)F)cc1 [Compound 93] | > 4.30
11 | O=c1cc(OCCN2CCS(=O)(=O)CC2)c(-c2ccc(F)cc2)cn1-c1ccc(OC(F)(F)F)cc1 [Compound 94] | < 3.70
12 | CN1CCC(Oc2cc(=O)n(-c3ccc(OC(F)(F)F)cc3)cc2-c2ccc(F)cc2)CC1 [Compound 95] | > 4.30
13 | COCCOc1cc(=O)n(-c2ccc(OC(F)(F)F)cc2)cc1-c1ccc(F)cc1 [Compound 96] | < 3.70
14 | O=C1CCCN1CCOc1cc(=O)n(-c2ccc(OC(F)(F)F)cc2)cc1-c1ccc(F)cc1 [Compound 97] | < 3.70
15 | O=C1COCCN1CCOc1cc(=O)n(-c2ccc(OC(F)(F)F)cc2)cc1-c1ccc(F)cc1 [Compound 98] | 3.70 to 4.30
16 | O=c1cc(OC2CCS(=O)(=O)CC2)c(-c2ccc(F)cc2)cn1-c1ccc(OC(F)(F)F)cc1 [Compound 99] | > 4.30
17 | CN1CCN(CCOc2cc(=O)n(-c3ccc(OC(F)(F)F)cc3)cc2-c2ccc(F)cc2)CC1 [Compound 100] | > 4.30
18 | O=c1cc(Oc2ccccc2)c(-c2ccc(F)cc2)cn1-c1ccc(OC(F)(F)F)cc1 [Compound 102] | < 3.70
19 | O=C(Nc1cc(=O)n(-c2ccc(OC(F)(F)F)cc2)cc1-c1ccc(F)cc1)OCc1ccccc1 [Compound 103] | < 3.70
20 | CC(=O)Nc1cc(=O)n(-c2ccc(OC(F)(F)F)cc2)cc1-c1ccc(F)cc1 [Compound 104] | < 3.70
21 | CCCOC(=O)Nc1cc(=O)n(-c2ccc(OC(F)(F)F)cc2)cc1-c1ccc(F)cc1 [Compound 105] | < 3.70
22 | CCC(=O)Nc1cc(=O)n(-c2ccc(OC(F)(F)F)cc2)cc1-c1ccc(F)cc1 [Compound 106] | < 3.70
23 | CCCCC(=O)Nc1cc(=O)n(-c2ccc(OC(F)(F)F)cc2)cc1-c1ccc(F)cc1 [Compound 107] | < 3.70
24 | CC(C)C(=O)Nc1cc(=O)n(-c2ccc(OC(F)(F)F)cc2)cc1-c1ccc(F)cc1 [Compound 108] | < 3.70
25 | CCCC(=O)Nc1cc(=O)n(-c2ccc(OC(F)(F)F)cc2)cc1-c1ccc(F)cc1 [Compound 110] | < 3.70

Row | Compound | pEC50
26 | COC(=O)Nc1cc(=O)n(-c2ccc(OC(F)(F)F)cc2)cc1-c1ccc(F)cc1 [Compound 111] | < 3.70
27 | CC(C)OC(=O)Nc1cc(=O)n(-c2ccc(OC(F)(F)F)cc2)cc1-c1ccc(F)cc1 [Compound 112] | < 3.70
28 | O=C(Nc1cc(=O)n(-c2ccc(OC(F)(F)F)cc2)cc1-c1ccc(F)cc1)Oc1ccccc1 [Compound 113] | < 3.70
29 | CCCNC(=O)Nc1cc(=O)n(-c2ccc(OC(F)(F)F)cc2)cc1-c1ccc(F)cc1 [Compound 115] | < 3.70
30 | O=C(NCc1ccccc1)Nc1cc(=O)n(-c2ccc(OC(F)(F)F)cc2)cc1-c1ccc(F)cc1 [Compound 116] | < 3.70
31 | O=C(NCc1ccccc1)c1cc(=O)n(-c2ccc(OC(F)(F)F)cc2)cc1-c1ccc(F)cc1 [Compound 118] | < 3.70
32 | Cn1cc(-c2cn(-c3ccc(OC(F)(F)F)cc3)c(=O)cc2O)cn1 [Compound 121] | < 3.70
33 | Cn1cc(-c2cn(-c3ccc(OC(F)(F)F)cc3)c(=O)cc2Cl)cn1 [Compound 122] | < 3.70
34 | Cn1cc(-c2cn(-c3ccc(OC(F)(F)F)cc3)c(=O)cc2N)cn1 [Compound 124] | < 3.70
35 | CNc1cc(=O)n(-c2ccc(OC(F)(F)F)cc2)cc1-c1cnn(C)c1 [Compound 125] | < 3.70
36 | Cn1cc(-c2cn(-c3ccc(OC(F)(F)F)cc3)c(=O)cc2N2CCCCC2)cn1 [Compound 127] | < 3.70
37 | Cn1cc(-c2cn(-c3ccc(OC(F)(F)F)cc3)c(=O)cc2N2CCOCC2)cn1 [Compound 128] | > 4.30
38 | Cn1cc(-c2cn(-c3ccc(OC(F)(F)F)cc3)c(=O)cc2N2CCc3ccccc3C2)cn1 [Compound 129] | 3.70 to 4.30
39 | Cn1cc(-c2cn(-c3ccc(OC(F)(F)F)cc3)c(=O)cc2Nc2ccccc2)cn1 [Compound 130] | < 3.70
40 | Cn1cc(-c2cn(-c3ccc(OC(F)(F)F)cc3)c(=O)cc2NCCc2ccccc2)cn1 [Compound 131] | < 3.70
41 | Cn1cc(-c2cn(-c3ccc(OC(F)(F)F)cc3)c(=O)cc2NCc2c(Cl)cccc2Cl)cn1 [Compound 132] | < 3.70
42 | COc1ccc(CN(C)c2cc(=O)n(-c3ccc(OC(F)(F)F)cc3)cc2-c2cnn(C)c2)cc1 [Compound 135] | 3.70 to 4.30
43 | CCOC(=O)Nc1cc(=O)n(-c2ccc(OC(F)(F)F)cc2)cc1-c1cnn(C)c1 [Compound 137] | < 3.70
44 | COC(=O)Nc1cc(=O)n(-c2ccc(OC(F)(F)F)cc2)cc1-c1cnn(C)c1 [Compound 138] | < 3.70
45 | CC(C)OC(=O)Nc1cc(=O)n(-c2ccc(OC(F)(F)F)cc2)cc1-c1cnn(C)c1 [Compound 139] | < 3.70
46 | CC(=O)Nc1cc(=O)n(-c2ccc(OC(F)(F)F)cc2)cc1-c1cnn(C)c1 [Compound 141] | < 3.70
47 | Cn1cc(-c2cn(-c3ccc(OC(F)(F)F)cc3)c(=O)cc2OCc2ccccc2)cn1 [Compound 143] | < 3.70
48 | COCCOc1cc(=O)n(-c2ccc(OC(F)(F)F)cc2)cc1-c1cnn(C)c1 [Compound 144] | < 3.70
49 | Cn1cc(-c2cn(-c3ccc(OC(F)(F)F)cc3)c(=O)cc2OCCN2CCCC2)cn1 [Compound 145] | 3.70 to 4.30
50 | Cn1cc(-c2cn(-c3ccc(OC(F)(F)F)cc3)c(=O)cc2OCCN2CCCC2=O)cn1 [Compound 146] | < 3.70

Row | Compound | pEC50
51 | Cn1cc(-c2cn(-c3ccc(OC(F)(F)F)cc3)c(=O)cc2OCCN2CCOCC2)cn1 [Compound 147] | < 3.70
52 | Cn1cc(-c2cn(-c3ccc(OC(F)(F)F)cc3)c(=O)cc2OCCN2CCS(=O)(=O)CC2)cn1 [Compound 148] | < 3.70
53 | Cn1cc(-c2cn(-c3ccc(OC(F)(F)F)cc3)c(=O)cc2OC2CCS(=O)(=O)CC2)cn1 [Compound 149] | 3.70 to 4.30
54 | Cn1cc(-c2cn(-c3ccc(OC(F)(F)F)cc3)c(=O)cc2OCCN2CCOCC2=O)cn1 [Compound 150] | 3.70 to 4.30
55 | CN1CCC(Oc2cc(=O)n(-c3ccc(OC(F)(F)F)cc3)cc2-c2cnn(C)c2)CC1 [Compound 151] | > 4.30
56 | CN1CCN(CCOc2cc(=O)n(-c3ccc(OC(F)(F)F)cc3)cc2-c2cnn(C)c2)CC1 [Compound 152] | 3.70 to 4.30
57 | CCOc1ccc(Oc2cc(=O)n(-c3ccc(OC(F)(F)F)cc3)cc2-c2cnn(C)c2)cc1C [Compound 154] | < 3.70
58 | Cn1cc(-c2cn(-c3ccc(OC(F)(F)F)cc3)c(=O)cc2Oc2cc(Cl)cc(C#N)c2)cn1 [Compound 156] | < 3.70
59 | Cn1cc(-c2cn(-c3ccc(OC(F)(F)F)cc3)c(=O)cc2C(=O)O)cn1 [Compound 158] | < 3.70
60 | CCCNC(=O)c1cc(=O)n(-c2ccc(OC(F)(F)F)cc2)cc1-c1cnn(C)c1 [Compound 159] | < 3.70
61 | Cc1cc(=O)n(-c2cccc(C(F)(F)F)c2)cc1-c1ccccc1 [Compound 163] | > 4.30
62 | Cc1cc(=O)n(-c2ccc(OC(F)(F)F)cc2)cc1-c1ccccc1 [Compound 164] | > 4.30
63 | Cc1cc(=O)n(-c2ccccc2)cc1-c1ccccc1 [Compound 165] | 3.70 to 4.30
64 | Cc1cc(=O)n(-c2cccc(OC(F)(F)F)c2)cc1-c1ccccc1 [Compound 166] | > 4.30
65 | CC(=O)Nc1cccc(-n2cc(-c3ccccc3)c(C)cc2=O)c1 [Compound 167] | < 3.70
66 | CCOc1ccc(-n2cc(-c3ccccc3)c(C)cc2=O)c(C)c1 [Compound 168] | 3.70 to 4.30
67 | Cc1cc(=O)n(-c2ccc(Cl)cc2C)cc1-c1ccccc1 [Compound 169] | 3.70 to 4.30
68 | Cc1cc(=O)n(-c2ccc(C(F)(F)F)cc2C)cc1-c1ccccc1 [Compound 170] | > 4.30
69 | Cc1cc(=O)n(-c2ccccc2F)cc1-c1ccccc1 [Compound 171] | 3.70 to 4.30
70 | CC(=O)Nc1cccc(-n2cc(-c3ccc(F)cc3)c(C)cc2=O)c1 [Compound 172] | < 3.70
71 | Cc1cc(=O)n(-c2ccc(C(F)(F)F)cc2)cc1-c1ccc(F)cc1 [Compound 173] | < 3.70
72 | Cc1cc(=O)n(-c2cccc(OC(F)(F)F)c2)cc1-c1ccc(F)cc1 [Compound 174] | > 4.30
73 | Cc1cc(=O)n(-c2ccccc2)cc1-c1ccc(F)cc1 [Compound 176] | 3.70 to 4.30
74 | Cc1cc(=O)n(-c2cccc(C(F)(F)F)c2)cc1-c1ccc(F)cc1 [Compound 177] | 3.70 to 4.30
